According to US20240327421A1 (Marquette University, priority 2017, published 2024):
Entries after “also recorded” stand apart in the source; their conditions may differ.

Assays:
[1] = system: ovariectomized mice; test: Bloodwork chemistry and hematology panel; assay type: in vivo; conditions: single IP injection, 0.5 or 5 mg/kg
Procedure: FIG. 14. Bloodwork panel for tissue pathology analysis for ISP358-2. Bloodwork hematology analysis was performed by Animal Reference Pathology, LLC in Salt Lake City, Utah (animalreferencepathology.com). Reference ranges are from Charles River Laboratories for CrL: Wi (Han) female 8-16 weck old rats. Blood samples were taken via cardiac puncture at the same time point and treatment conditions as in FIGS. 13A-13M. […] In some cases hemolysis occurred, likely due to the blood collection procedure, which precluded analysis for those samples, thus, samples sizes in the analysis were 6-8. The mean and standard error of the mean of cach group is listed in the table, along with outcomes from one-way ANOVA statistical analysis. […] The hematology samples were analyzed by a Sysmex XT-2000iV using veterinary software and the rat species setting.^3 The reagents for individual assays were sourced from either Seimens, RandOx or Sekisui.

[2] = target: T1, Androgen Receptor (AR) (Homo sapiens, UniProt P10275); test: GeneBLAzer nuclear hormone receptor specificity assay, AR; assay type: cell-based; conditions: 0.25 to 25 μM; listed as ISP358-2
T1 sequence (P10275 669-900 limits assumed): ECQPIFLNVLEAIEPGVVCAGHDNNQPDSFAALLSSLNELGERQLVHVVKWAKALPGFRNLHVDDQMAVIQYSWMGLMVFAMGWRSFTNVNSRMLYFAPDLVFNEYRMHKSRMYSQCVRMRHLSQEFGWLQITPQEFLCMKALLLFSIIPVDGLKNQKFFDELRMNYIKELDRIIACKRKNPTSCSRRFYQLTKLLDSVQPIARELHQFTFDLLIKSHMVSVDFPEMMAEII

OC[C@H]1CC[C@H](c2ccc(O)cc2)CC1 [Compound 16]
bloodwork chemistry and hematology vs reference ranges [1]: do not show significant deviations from expected reference ranges | agonist activity, AR [2]: not an agonist; also recorded: no significant off-target activity
